# Assays:
# Vero = assay: Cytotoxicity against african green monkey Vero cells after 72 hrs by MTS assay; conditions: Chlorocebus sabaeus, Vero, 72 h
# Trypanosoma cruzi = assay: Antitrypanosomal activity against Trypanosoma cruzi tulahuen C4 trypomastigotes infected in african green monkey Vero cells assessed as CPRG cleavage after 120 hrs by microplate reader; type: functional, organism-based
# [1] = system: Mycobacterium tuberculosis; assay: Antitubercular activity against Mycobacterium tuberculosis H37Rv ATCC 27294 after 7 days by microplate alamar blue assay; type: functional; conditions: H37Rv ATCC 27294, 168 h
# [2] = Cytotoxicity against BALB/c mouse macrophages after 48 hrs by trypan blue dye exclusion method; type: cell-based; conditions: Macrophage
# Leishmania amazonensis [3] = assay: Antileishmanial activity against Leishmania amazonensis MHOM/BR/76/LTB-012 amastigotes infected BALB/c mouse macrophages after 48 hrs by MTT assay; type: functional, organism-based; conditions: MHOM/BR/76/LTB-012, 48 h
# [4] = Selectivity index, ratio of IC50 for BALB/c mouse macrophages to IC50 for Leishmania amazonensis MHOM/BR/76/LTB-012
# Leishmania amazonensis [5] = assay: Antileishmanial activity against Leishmania amazonensis Lma CL1 amastigotes infected BALB/c mouse macrophages after 48 hrs by Giemsa staining method; type: functional, organism-based; conditions: Lma CL1, 48 h
# Leishmania peruviana = assay: Antileishmanial activity against Leishmania peruviana MHOM/PE/LCA08 promastigote infected BALB/c mouse macrophages after 48 hrs by Giemsa staining method; type: functional, organism-based; conditions: MHOM/PE/LCA08, 48 h
# [6] = Cytotoxicity against BALB mouse 3T3 cells; type: cell-based; conditions: BALB 3T3 cells
# DU-145 = assay: Cytotoxicity against human DU145 cells; type: functional
# M14 = assay: Cytotoxicity against human M14 cells; type: functional
# HT-29 = assay: Cytotoxicity against human HT-29 cells; type: functional
# K562 = assay: Cytotoxicity against human K562 cells; type: functional
# CCRF-CEM = assay: Cytotoxicity against human CCRF-CEM cells; type: functional
# [7] = Cytotoxicity against human […] cells; type: functional
# SR = assay: Cytotoxicity against human SR cells; type: functional
# EKVX = assay: Cytotoxicity against human EKVX cells; type: functional
# HOP-92 = assay: Cytotoxicity against human HOP92 cells; type: functional
# NCI-H226 = assay: Cytotoxicity against human NCI-H226 cells; type: functional
# HCT-15 = assay: Cytotoxicity against human HCT15 cells; type: functional
# KM12 = assay: Cytotoxicity against human KM12 cells; type: functional
# SW-620 = assay: Cytotoxicity against human SW620 cells; type: functional
# SF-268 = assay: Cytotoxicity against human SF268 cells; type: functional
# SF-295 = assay: Cytotoxicity against human SF295 cells; type: functional
# SF-539 = assay: Cytotoxicity against human SF539 cells; type: functional
# SNB-75 = assay: Cytotoxicity against human SNB75 cells; type: functional
# LOX IMVI = assay: Cytotoxicity against human LOXIMVI cells; type: functional
# MDA-MB-435 = assay: Cytotoxicity against human MDA-MB-435 cells; type: functional
# SK-MEL-2 = assay: Cytotoxicity against human SK-MEL-2 cells; type: functional
# SK-MEL-5 = assay: Cytotoxicity against human SK-MEL-5 cells; type: functional
# UACC-257 = assay: Cytotoxicity against human UACC257 cells; type: functional
# OVCAR-3 = assay: Cytotoxicity against human OVCAR-3 cells; type: functional
# OVCAR-4 = assay: Cytotoxicity against human OVCAR4 cells; type: functional
# OVCAR-5 = assay: Cytotoxicity against human OVCAR5 cells; type: functional
# OVCAR-8 = assay: Cytotoxicity against human OVCAR8 cells; type: functional
# 786-0 = assay: Cytotoxicity against human 786-0 cells; type: functional
# ACHN = assay: Cytotoxicity against human ACHN cells; type: functional
# CAKI-1 = assay: Cytotoxicity against human Caki1 cells; type: functional
# RXF 393 = assay: Cytotoxicity against human RXF393 cells; type: functional
# UO-31 = assay: Cytotoxicity against human UO31 cells; type: functional; conditions: read-out: LC50 (the source's name)
# MDA-MB-231 = assay: Cytotoxicity against human MDA-MB-231 cells; type: functional
# [8] = Cytotoxicity against human Hs 578T cells; type: functional
# BT-549 = assay: Cytotoxicity against human BT549 cells; type: functional
# T47D = assay: Cytotoxicity against human T47D cells; type: functional
# MDA-MB-468 = assay: Cytotoxicity against human MDA-MB-468 cells; type: functional
# [9] = read-out: LC50 (the source's name)
structure (smiles),measurement,setting,value
C(=N\Nc1ncnc2sc3c(c12)CCCC3)/c1ccccn1,IC50,Vero,< 0.3 µM
same,IC50,Trypanosoma cruzi,3.9 µM
same,MIC,[1],145 µM
same,IC50,[2],6.5 µM
same,IC50,Leishmania amazonensis [3],0.5 µM
same,Ratio IC50,[4],13
same,IC50,Leishmania amazonensis [5],> 2 µM
same,IC50,Leishmania peruviana,0.7 µM
same,GI50,[6],0.04 µM
same,GI50,DU-145,0.37 µM
same,LC50,DU-145,51.6 µM
same,TGI,DU-145,15.1 µM
same,GI50,M14,0.25 µM
same,TGI,M14,0.599 µM
same,CC50,M14; [9],33.4 µM
same,GI50,HT-29,0.1 µM
same,"LC50 (lethal concentration, 50% cell kill)",HT-29,44.9 µM
same,TGI,HT-29,15.1 µM
same,GI50,K562,0.16 µM
same,TGI,K562,10.8 µM
same,CC50,K562; [9],> 100 µM
same,GI50,CCRF-CEM,0.242 µM
same,TGI,CCRF-CEM,0.769 µM
same,CC50,CCRF-CEM; [9],> 100 µM
same,GI50,[7],0.35 µM
same,TGI,[7],12.5 µM
same,CC50,[7]; [9],> 100 µM
same,GI50,SR,0.368 µM
same,TGI,SR,0.953 µM
same,CC50,SR; [9],> 100 µM
same,GI50,EKVX,0.317 µM
same,TGI,EKVX,20.5 µM
same,CC50,EKVX; [9],> 100 µM
same,GI50,HOP-92,0.417 µM
same,TGI,HOP-92,31 µM
same,CC50,HOP-92; [9],> 100 µM
same,GI50,NCI-H226,0.385 µM
same,TGI,NCI-H226,16.2 µM
same,CC50,NCI-H226; [9],> 100 µM
same,GI50,HCT-15,0.45 µM
same,TGI,HCT-15,27 µM
same,CC50,HCT-15; [9],> 100 µM
same,GI50,KM12,0.515 µM
same,TGI,KM12,12.7 µM
same,CC50,KM12; [9],38 µM
same,GI50,SW-620,0.561 µM
same,TGI,SW-620,17.9 µM
same,CC50,SW-620; [9],59.5 µM
same,GI50,SF-268,0.356 µM
same,TGI,SF-268,15.1 µM
same,CC50,SF-268; [9],83 µM
same,GI50,SF-295,0.313 µM
same,TGI,SF-295,12.1 µM
same,CC50,SF-295; [9],> 100 µM
same,GI50,SF-539,0.391 µM
same,TGI,SF-539,0.384 µM
same,CC50,SF-539; [9],29.2 µM
same,GI50,SNB-75,0.585 µM
same,TGI,SNB-75,14.7 µM
same,CC50,SNB-75; [9],49.3 µM
same,GI50,LOX IMVI,0.256 µM
same,CC50,LOX IMVI; [9],34.8 µM
same,GI50,MDA-MB-435,0.477 µM
same,TGI,MDA-MB-435,25.1 µM
same,CC50,MDA-MB-435; [9],> 100 µM
same,GI50,SK-MEL-2,7.51 µM
same,TGI,SK-MEL-2,25.5 µM
same,CC50,SK-MEL-2; [9],67.8 µM
same,GI50,SK-MEL-5,0.332 µM
same,TGI,SK-MEL-5,1.72 µM
same,CC50,SK-MEL-5; [9],23.6 µM
same,GI50,UACC-257,0.355 µM
same,CC50,UACC-257; [9],41.7 µM
same,GI50,OVCAR-3,0.109 µM
same,TGI,OVCAR-3,14.5 µM
same,CC50,OVCAR-3; [9],43.9 µM
same,GI50,OVCAR-4,0.431 µM
same,TGI,OVCAR-4,26.3 µM
same,CC50,OVCAR-4; [9],> 0.1 µM
same,GI50,OVCAR-5,0.823 µM
same,TGI,OVCAR-5,31.4 µM
same,CC50,OVCAR-5; [9],> 0.1 µM
same,GI50,OVCAR-8,0.481 µM
same,TGI,OVCAR-8,> 1 µM
same,CC50,OVCAR-8; [9],> 0.1 µM
same,GI50,786-0,0.333 µM
same,TGI,786-0,0.947 µM
same,CC50,786-0; [9],44.4 µM
same,GI50,ACHN,0.313 µM
same,TGI,ACHN,11 µM
same,CC50,ACHN; [9],> 100 µM
same,GI50,CAKI-1,0.313 µM
same,TGI,CAKI-1,14.8 µM
same,CC50,CAKI-1; [9],> 100 µM
same,GI50,RXF 393,0.423 µM
same,TGI,RXF 393,10.6 µM
same,CC50,RXF 393; [9],45.3 µM
same,CC50,UO-31,63 µM
same,GI50,MDA-MB-231,0.603 µM
same,TGI,MDA-MB-231,29.7 µM
same,CC50,MDA-MB-231; [9],> 100 µM
same,GI50,[8],0.748 µM
same,TGI,[8],23.9 µM
same,CC50,[8]; [9],> 100 µM
same,GI50,BT-549,0.394 µM
same,TGI,BT-549,28.7 µM
same,CC50,BT-549; [9],> 100 µM
same,GI50,T47D,0.0764 µM
same,TGI,T47D,28 µM
same,CC50,T47D; [9],> 100 µM
same,GI50,MDA-MB-468,0.2 µM
same,TGI,MDA-MB-468,0.505 µM
same,CC50,MDA-MB-468; [9],41 µM

# — ChEMBL document CHEMBL1156236, “Trypanoside, anti-tuberculosis, leishmanicidal, and cytotoxic activities of tetrahydrobenzothienopyrimidines” (Bioorg Med Chem, 2010)
